In patent US20180194799A1, “BETUIN DERIVATIVES FOR PREVENTING OR TREATING HIV INFECTIONS” (GLAXOSMITHKLINE INTELLECTUAL PROPERTY (NO.2) LIMITED, priority 2015, published 2018):
pEC50, pIC50: −log10 of the molar value. Structures can show the parent of a compound that is named as a salt.

Key:
[1] = system: V370A; assay: MT4 Cell Antiviral Assay, V370A; format: cell-based, HIV-1; conditions: Human immunodeficiency virus 1, MT4, 120 h, read-out: EC50 V370A (nM)
[2] = system: NL4-3 wt; assay: MT4 Cell Antiviral Assay, NL4-3 wt; format: cell-based, HIV-1; conditions: Human immunodeficiency virus 1, NL43, 120 h; HIV MT4 Antiviral Cell Assay of Example 17, 5 days incubation
[3] = system: HIV-1 (strain IIIB); assay: MT4 Cell Antiviral Assay (general statements and standard); format: cell-based; conditions: Human immunodeficiency virus 1, IIIB; control and standard in every assay, propidium iodide readout, MT4 cells; read-out: expected range of IC50 values
Experimental: Antiviral HIV activity and compound-induced cytotoxicity were measured in parallel by means of a propidium iodide based procedure in the human T-cell lymphotropic virus transformed cell line MT4. Aliquots of the test compounds were serially diluted in medium (RPMI 1640, 10% fetal calf serum (FCS), and gentamycin) in 96-well plates (Costar 3598) using a Cetus Pro/Pette. Exponentially growing MT4 cells were harvested and centrifuged at 1000 rpm for 10 min in a Jouan centrifuge (model CR 4 12). Cell pellets were resuspended in fresh medium (RPMI 1640, 20% FCS, 20% IL-2, and gentamycin) to a density of 5×10^5 cells/ml. Cell aliquots were infected by the addition of HIV-1 (strain IIIB) diluted to give a viral multiplicity of infection of 100×TCID50. […]
For propidium iodide readout, 27 μl of 5% Nonidet-40 was added to each well of the incubation plate. […]
For MTS readout, 20 μl CellTiter 96 AQ One Solution reagent (Promega #G3582) was added to each well. At 75 minutes following the addition of MTS reagent, absorbance was read at 492 nm using a Tecan Sunrise 96-well plate reader. […]
For each assay plate, the results (relative fluorescence units, rfU, or OD values) of wells containing uninfected cells or infected cells with no compound were averaged, respectively. […] Percent of cells remaining is determined by the following formula: […]

[4] = system: HIV; conditions: cited from earlier work

Which EC50 [1] does the source give for `CC(C)C1=C2[C@H]3CC[C@@H]4[C@@]5(C)CC=C(c6ccc(C(=O)O)cc6)C(C)(C)C5CC[C@@]4(C)[C@]3(C)CC[C@@]2([C@@H](O)CN(CC2CC2)C(=O)CN2CCCC2)CC1=O` (stereo in doubt) [Example 3, 4-((3aR,5aR,5bR,7aR,11aS,11bR,13aS)-3a-((R)-2-(N-(cyclopropylmethyl)-2-(pyrrolidin-1-yl)acetamido)-1-hydroxyethyl)-1-isopropyl-5a,5b,8,8,11a-pentamethyl-2-oxo-3,3a,4,5,5a,5b,6,7,7a,8,11,11a,11b,12,13,13a-hexadecahydro-2H-cyclopenta[a]chrysen-9-yl)benzoic acid hydrochloride] here?
Its EC50 is 6.5 nM.

What about the pEC50 [2] of the same compound?
Its pEC50 is 8.55.

Which EC50 [1] does the source give for `CC(C)C1=C2[C@H]3CC[C@@H]4[C@@]5(C)CC=C(c6ccc(C(=O)O)cc6)C(C)(C)[C@@H]5CC[C@@]4(C)[C@]3(C)CC[C@@]2([C@@H](O)CN(CCN(C)C)CC2CC2)CC1=O` [Example 10, 4-((3aR,5aR,5bR,7aR,11aS,11bR,13aS)-3a-((R)-2-((cyclopropylmethyl)(2-(dimethylamino)ethyl)amino)-1-hydroxyethyl)-1-isopropyl-5a,5b,8,8,11a-pentamethyl-2-oxo-3,3a,4,5,5a,5b,6,7,7a,8,11,11a,11b,12,13,13a-hexadecahydro-2H-cyclopenta[a]chrysen-9-yl)benzoic acid hydrochloride] here?
The EC50 was 7.9 nM.

What about the pEC50 [2] of the same compound?
Its pEC50 is 8.11.

For `CC(C)C1=C2[C@H]3CC[C@@H]4[C@@]5(C)CC=C(c6ccc(C(=O)O)cc6)C(C)(C)C5CC[C@@]4(C)[C@]3(C)CC[C@@]2([C@@H](O)CN(CC2CC2)C(=O)CN2CCCC2=O)CC1=O` (stereo in doubt) [Example 4, 4-((3aR,5aR,5bR,7aR,11aS,11bR,13aS)-3a-((R)-2-(N-(cyclopropylmethyl)-2-(2-oxopyrrolidin-1-yl)acetamido)-1-hydroxyethyl)-1-isopropyl-5a,5b,8,8,11a-pentamethyl-2-oxo-3,3a,4,5,5a,5b,6,7,7a,8,11,11a,11b,12,13,13a-hexadecahydro-2H-cyclopenta[a]chrysen-9-yl)benzoic acid], which EC50 [1] is on record?
Its EC50 is 1020 nM.

And the pEC50 [2]?
Its pEC50 is 7.99.

With `Cc1cn([C@H]2C[C@H](N=[N+]=[N-])[C@@H](CO)O2)c(=O)[nH]c1=O` [3′-azido-3′-deoxythymidine] as the compound, how does the pIC50 [3] read?
Its pIC50 is 6.92 to 7.40.

With `CC(C)C1=C2[C@H]3CC[C@@H]4[C@@]5(C)CC=C(c6ccc(C(=O)O)cc6)C(C)(C)C5CC[C@@]4(C)[C@]3(C)CC[C@@]2([C@@H](O)CN(CC2CCC2)C(=O)CN2CCCC2)CC1=O` (stereo in doubt) [Example 5, 4-((3aR,5aR,5bR,7aR,11aS,11bR,13aS)-3a-((R)-2-(N-(cyclobutylmethyl)-2-(pyrrolidin-1-yl)acetamido)-1-hydroxyethyl)-1-isopropyl-5a,5b,8,8,11a-pentamethyl-2-oxo-3,3a,4,5,5a,5b,6,7,7a,8,11,11a,11b,12,13,13a-hexadecahydro-2H-cyclopenta[a]chrysen-9-yl)benzoic acid hydrochloride] as the compound, how does the EC50 [1] read?
The EC50 was 3.8 nM.

What about the pEC50 [2] of the same compound?
The pEC50 was 7.45.

With `CC(C)C1=C2[C@H]3CC[C@@H]4[C@@]5(C)CC=C(c6ccc(C(=O)O)cc6)C(C)(C)[C@@H]5CC[C@@]4(C)[C@]3(C)CC[C@@]2([C@@H](O)CN(CC2CC2)C(=O)CN(C)C)CC1=O` [Example 1, 4-((3aR,5aR,5bR,7aR,11aS,11bR,13aS)-3a-((R)-2-(N-(cyclopropylmethyl)-2-(dimethylamino)acetamido)-1-hydroxyethyl)-1-isopropyl-5a,5b,8,8,11a-pentamethyl-2-oxo-3,3a,4,5,5a,5b,6,7,7a,8,11,11a,11b,12,13,13a-hexadecahydro-2H-cyclopenta[a]chrysen-9-yl)benzoic acid] as the compound, how does the EC50 [1] read?
Its EC50 is 17 nM.

What about the pEC50 [2] of the same compound?
The pEC50 was 8.43.

Which EC50 [1] does the source give for `CC(C)C1=C2[C@H]3CC[C@@H]4[C@@]5(C)CC=C(c6ccc(C(=O)O)cc6)C(C)(C)[C@@H]5CC[C@@]4(C)[C@]3(C)CC[C@@]2([C@@H](O)CNCC2CC2)CC1=O` [Example 9, 4-((3aR,5aR,5bR,7aR,11aS,11bR,13aS)-3a-((R)-2-((cyclopropylmethyl)amino)-1-hydroxyethyl)-1-isopropyl-5a,5b,8,8,11a-pentamethyl-2-oxo-3,3a,4,5,5a,5b,6,7,7a,8,11,11a,11b,12,13,13a-hexadecahydro-2H-cyclopenta[a]chrysen-9-yl)benzoic acid hydrochloride] here?
Its EC50 is 10000 nM.

What about the pEC50 [2] of the same compound?
Its pEC50 is 7.16.

For `CC(C)C1=C2[C@H]3CC[C@@H]4[C@@]5(C)CC=C(c6ccc(C(=O)O)cc6)C(C)(C)C5CC[C@@]4(C)[C@]3(C)CC[C@@]2([C@@H](O)CN(CC2CCC2)C(=O)CN(C)C)CC1=O` (stereo in doubt) [Example 6, 4-((3aR,5aR,5bR,7aR,11aS,11bR,13aS)-3a-((R)-2-(N-(cyclobutylmethyl)-2-(dimethylamino)acetamido)-1-hydroxyethyl)-1-isopropyl-5a,5b,8,8,11a-pentamethyl-2-oxo-3,3a,4,5,5a,5b,6,7,7a,8,11,11a,11b,12,13,13a-hexadecahydro-2H-cyclopenta[a]chrysen-9-yl)benzoic acid hydrochloride], which EC50 [1] is on record?
Its EC50 is 8.9 nM.

And the pEC50 [2]?
The pEC50 was 8.52.

With `COCC(=O)N(CC1CC1)C[C@H](O)[C@@]12CC[C@]3(C)[C@H](CC[C@@H]4[C@@]5(C)CC=C(c6cn(CC(=O)O)nn6)C(C)(C)[C@@H]5CC[C@]43C)C1=C(C(C)C)C(=O)C2` [Example 12, 2-(4-((3aR,5aR,5bR,7aR,11aS,11bR,13aS)-3a-((R)-2-(N-(cyclopropylmethyl)-2-methoxyacetamido)-1-hydroxyethyl)-1-isopropyl-5a,5b,8,8,11a-pentamethyl-2-oxo-3,3a,4,5,5a,5b,6,7,7a,8,11,11a,11b,12,13,13a-hexadecahydro-2H-cyclopenta[a]chrysen-9-yl)-1H-1,2,3-triazol-1-yl)acetic acid hydrochloride] as the compound, how does the EC50 [1] read?
Its EC50 is 15500 nM.

And the pEC50 [2]?
Its pEC50 is 4.69.

Which “HIV viral load reduction (mean)” value ([4]; patients with trough levels >=20 μg/mL and without baseline Gag polymorphisms at Q369, V370 or T371) does the source give for `C=C(C)[C@@H]1CC[C@]2(C(=O)O)CC[C@]3(C)[C@H](CC[C@@H]4[C@@]5(C)CC[C@H](OC(=O)CC(C)(C)C(=O)O)C(C)(C)[C@@H]5CC[C@]43C)[C@@H]12` [Bevirimat] here?
The value was 1.3 log10/mL.

What about the “viral load reduction versus patients without Gag polymorphisms” value ([4]; users with Gag polymorphisms at Q369, V370 or T371) of the same compound?
Its value is “significantly lower load reductions”.

Which EC50 [1] does the source give for `COCC(=O)N(CC1CC1)C[C@H](O)[C@@]12CC[C@]3(C)[C@H](CC[C@@H]4[C@@]5(C)CC=C(c6ccc(C(=O)O)cc6)C(C)(C)C5CC[C@]43C)C1=C(C(C)C)C(=O)C2` (stereo in doubt) [Example 2, 4-((3aR,5aR,5bR,7aR,11aS,11bR,13aS)-3a-((R)-2-(N-(cyclopropylmethyl)-2-methoxyacetamido)-1-hydroxyethyl)-1-isopropyl-5a,5b,8,8,11a-pentamethyl-2-oxo-3,3a,4,5,5a,5b,6,7,7a,8,11,11a,11b,12,13,13a-hexadecahydro-2H-cyclopenta[a]chrysen-9-yl)benzoic acid] here?
Its EC50 is 389 nM.

And the pEC50 [2]?
Its pEC50 is 7.81.

Which results are given for `CC(=O)N(CC1CC1)C[C@H](O)[C@@]12CC[C@]3(C)[C@H](CC[C@@H]4[C@@]5(C)CC=C(c6ccc(C(=O)O)cc6)C(C)(C)[C@@H]5CC[C@]43C)C1=C(C(C)C)C(=O)C2` [Example 11, 4-((3aR,5aR,5bR,7aR,11aS,11bR,13aS)-3a-((R)-2-(N-(cyclopropylmethyl)acetamido)-1-hydroxyethyl)-1-isopropyl-5a,5b,8,8,11a-pentamethyl-2-oxo-3,3a,4,5,5a,5b,6,7,7a,8,11,11a,11b,12,13,13a-hexadecahydro-2H-cyclopenta[a]chrysen-9-yl)benzoic acid]?
EC50 [1]: 24.5 nM; pEC50 [2]: 7.40
